The source of these data is PubChem BioAssay AID328 (DTP/NCI, 2004).

This test concerns BDF1 mice, P388 leukemia ip, median survival T/C. Put plainly: NCI In Vivo Anticancer Drug Screen. Data for tumor model P388 Leukemia (intraperitoneal) in B6D2F1 (BDF1) mice. The following applies: endpoint: median survival time, higher = longer survival. In outline:
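Transplantable tumour in mice; compound vs vehicle dosing; survival scored; ratio of treated to control reported.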

[1] abbreviates: dose: 50.0 mg/kg/injection, schedule: Q01DX009 (ip), vehicle: saline with Tween-80.
Setting [2] is: dose: 100.0 mg/kg/injection, schedule: Q01DX009 (ip), vehicle: saline with Tween-80.
The mark [3] stands for this setting: dose: 50.0 mg/kg/injection, schedule: Q01DX009 (ip), vehicle: Klucel (hydroxypropylcellulose) (HPC).
The mark [4] stands for this setting: dose: 100.0 mg/kg/injection, schedule: Q01DX009 (ip), vehicle: Klucel (hydroxypropylcellulose) (HPC).
The mark [5] stands for this setting: dose: 100.0 mg/kg/injection, schedule: Q04DX003 (ip), vehicle: other.
[6] abbreviates: dose: 200.0 mg/kg/injection, schedule: Q01DX009 (ip), vehicle: Klucel (hydroxypropylcellulose) (HPC).
Where [7] appears, read: dose: 200.0 mg/kg/injection, schedule: Q04DX003 (ip), vehicle: other.
[8] abbreviates: dose: 400.0 mg/kg/injection, schedule: Q04DX003 (ip), vehicle: other.
[9] abbreviates: dose: 12.5 mg/kg/injection, schedule: Q01DX009 (ip), vehicle: saline with Tween-80.
Where [10] appears, read: dose: 25.0 mg/kg/injection, schedule: Q01DX009 (ip), vehicle: saline with Tween-80.
The mark [11] stands for this setting: dose: 100.0 mg/kg/injection, schedule: Q01DX009 (ip), vehicle: water.
[12] abbreviates: dose: 200.0 mg/kg/injection, schedule: Q04DX003 (ip), vehicle: water.
[13] abbreviates: dose: 400.0 mg/kg/injection, schedule: Q04DX003 (ip), vehicle: water.

“And” between values parts separate entries of the source, which are not always exact repeats. Equal values may be shown once. Toxic doses and inconclusive results are not listed.

For `CCCCOCN(COCCCC)c1ccc(C)cc1`, the T/C is 100 % of control under setting [1] and 112 % of control under setting [2].

As for `O=CN(O)CC(=O)O.[Cu]`, the T/C is 95 % of control (dose: 1.16 mg/kg/injection, schedule: Q04DX003 (ip), vehicle: saline); 95 % of control (dose: 1.77 mg/kg/injection, schedule: Q04DX003 (ip), vehicle: saline); 90 % of control (dose: 2.65 mg/kg/injection, schedule: Q04DX003 (ip), vehicle: saline); 90 % of control (dose: 3.9 mg/kg/injection, schedule: Q04DX003 (ip), vehicle: saline); 100 % of control (dose: 6.0 mg/kg/injection, schedule: Q04DX003 (ip), vehicle: saline); 113 % of control (dose: 9.0 mg/kg/injection, schedule: Q04DX003 (ip), vehicle: saline). Further, the T/C is, setting by setting: (dose: 10.0 mg/kg/injection, schedule: Q01DX001 (ip), vehicle: saline) 100 % of control; (dose: 13.0 mg/kg/injection, schedule: Q04DX003 (ip), vehicle: saline) 104 % of control; (dose: 20.0 mg/kg/injection, schedule: Q01DX001 (ip), vehicle: saline) 118 % of control.

As to `C1CC2C(CCCC23OCCO3)C2(C1)OCCO2` (stereo not given), the T/C under setting [3] is 113 % of control; the T/C under setting [4] is 86 % of control; the T/C under setting [5] was 100 % of control; the T/C under setting [6] is 95 % of control; the T/C under setting [7] was 95 % of control; the T/C under setting [8] was 100 % of control.

In the case of `OC1(C2CCCCC2)C2CCCC1CCC2` (stereo not given), the T/C is 104 % of control under setting [9]; 95 % of control under setting [10]; 109 % of control under setting [1]; 104 % of control under setting [5]; 109 % of control under setting [7]; 104 % of control under setting [8].

On to `[Cl][Rh][Cl].[NH-]c1ccc(S(=O)(=O)Nc2ccccn2)cc1.[NH-]c1ccc(S(=O)(=O)Nc2ccccn2)cc1.[NH-]c1ccc(S(=O)(=O)Nc2ccccn2)cc1.[NH-]c1ccc(S(=O)(=O)Nc2ccccn2)cc1`, for which the T/C is 108 % of control (dose: 100.0 mg/kg/injection, schedule: Q04DX003 (ip), vehicle: saline with Tween-80); 94 % of control (dose: 200.0 mg/kg/injection, schedule: Q04DX003 (ip), vehicle: saline with Tween-80); 91 % of control (dose: 400.0 mg/kg/injection, schedule: Q04DX003 (ip), vehicle: saline with Tween-80).

For the compound `CCN(CC)Cc1c(O)ccc2c3c(c(=O)oc12)CCCC3`, the T/C is 112 % of control (dose: 1.0 mg/kg/injection, schedule: Q01DX005 (ip), vehicle: saline); 106 % of control (dose: 2.0 mg/kg/injection, schedule: Q01DX005 (ip), vehicle: saline); 112 % of control (dose: 4.0 mg/kg/injection, schedule: Q01DX005 (ip), vehicle: saline); 104 % of control (dose: 8.0 mg/kg/injection, schedule: Q01DX005 (ip), vehicle: saline); 98 % of control (dose: 16.0 mg/kg/injection, schedule: Q01DX005 (ip), vehicle: saline); 102 % of control (dose: 32.0 mg/kg/injection, schedule: Q01DX005 (ip), vehicle: saline). In addition, the T/C (dose: 64.0 mg/kg/injection, schedule: Q01DX005 (ip), vehicle: saline) was 96 % of control.

In the case of `Cc1cc(N(CCCl)CCCl)ccc1/C=N\Nc1nncn1N`, the T/C reads like this: (dose: 35.0 mg/kg/injection, schedule: Q01DX007 (ip), vehicle: Klucel (hydroxypropylcellulose) (HPC)) 157 % of control; (dose: 45.0 mg/kg/injection, schedule: Q04DX003 (ip), vehicle: Klucel (hydroxypropylcellulose) (HPC)) 120 % of control; (dose: 50.0 mg/kg/injection, schedule: Q01DX007 (ip), vehicle: Klucel (hydroxypropylcellulose) (HPC)) 175 % of control; (dose: 75.0 mg/kg/injection, schedule: Q01DX007 (ip), vehicle: Klucel (hydroxypropylcellulose) (HPC)) 211 % of control; under setting [4], 118 % of control; (dose: 132.0 mg/kg/injection, schedule: Q04DX003 (ip), vehicle: Klucel (hydroxypropylcellulose) (HPC)) 213 % of control. The T/C was 163 % of control (dose: 132.0 mg/kg/injection, schedule: Q04DX003 (ip), vehicle: saline); 90 % of control under setting [6]; 218 % of control (dose: 200.0 mg/kg/injection, schedule: Q04DX003 (ip), vehicle: Klucel (hydroxypropylcellulose) (HPC)); 122 % of control (dose: 300.0 mg/kg/injection, schedule: Q04DX003 (ip), vehicle: Klucel (hydroxypropylcellulose) (HPC)); 90 % of control (dose: 300.0 mg/kg/injection, schedule: Q04DX003 (ip), vehicle: saline).

With `CN(C1=NS(=O)(=O)N=C(N(C)c2ccccc2)O1)c1ccccc1`, the T/C is 122 % of control (dose: 25.0 mg/kg/injection, schedule: Q01DX009 (ip), vehicle: Klucel (hydroxypropylcellulose) (HPC)); 102 % of control under setting [3]; 89 % of control under setting [1]; 115 % of control under setting [4]; 99 % of control under setting [2]; 105 % of control under setting [6].

Take `COC(=O)CCC1(c2ccccc2)CCCC1=O` (stereo not given): the T/C by setting is: (dose: 12.5 mg/kg/injection, schedule: Q01DX009 (ip), vehicle: water) 103 % of control; (dose: 25.0 mg/kg/injection, schedule: Q01DX009 (ip), vehicle: water) 92 % of control; under setting [11], 94 % of control; under setting [12], 96 % of control; (dose: 300.0 mg/kg/injection, schedule: Q04DX003 (ip), vehicle: water) 100 % of control; under setting [13], 91 % of control.

With `CCS(=O)(=O)CCN1C(=O)CN=C(c2ccccc2F)c2cc(Cl)ccc21`, the T/C under setting [9] was 114 % of control; the T/C under setting [10] was 96 % of control; the T/C under setting [1] was 103 % of control and 123 % of control; the T/C under setting [2] is 90 % of control and 107 % of control.

As for `Cc1noc(N)c1N`, the T/C under setting [11] is 110 % of control; the T/C (dose: 100.0 mg/kg/injection, schedule: Q04DX003 (ip), vehicle: water) is 109 % of control; the T/C (dose: 200.0 mg/kg/injection, schedule: Q01DX009 (ip), vehicle: water) was 110 % of control and 117 % of control; the T/C under setting [12] was 100 % of control; the T/C (dose: 400.0 mg/kg/injection, schedule: Q01DX009 (ip), vehicle: water) is 106 % of control; the T/C under setting [13] was 100 % of control. The T/C (dose: 600.0 mg/kg/injection, schedule: Q01DX009 (ip), vehicle: water) is 122 % of control.

`O=C(NC(=O)c1c(F)cccc1F)Nc1nc2cc(Cl)ccc2o1`: the T/C is 96 % of control under setting [10], 96 % of control under setting [1] and 90 % of control under setting [2].
